Like-named read-outs stand apart in the source and are kept apart here.
Experiments:
[1] = system: P. falciparum NF54^luc parasites; experiment: 72 h SYBR Green growth inhibition, PfNF54^luc; type: cell-based; conditions: Plasmodium falciparum
[2] = system: P. falciparum NF54^luc parasites; experiment: Luciferase reporter (LR) / BRRoK assay, PfNF54^luc; type: cell-based, Plasmodium falciparum; conditions: for EC50: Plasmodium falciparum, NF54, Hec50, luciferase reporter
[3] = system: P. falciparum NF54^luc parasites; experiment: Luciferase reporter (LR) / BRRoK assay, PfNF54^luc; type: cell-based; conditions: Plasmodium falciparum, NF54, Hec50, 72 h
[4] = system: Dd2^L350H (PfATP4^L350H); experiment: Drug susceptibility assay for cross-resistance profiling (Fidock Lab), L350H; type: cell-based, Plasmodium falciparum; conditions: Table 3 data set
[5] = system: Dd2^P412L (PfATP4^P412L); experiment: Drug susceptibility assay for cross-resistance profiling (Fidock Lab), P412L; type: cell-based, Plasmodium falciparum; conditions: Table 3 data set
[6] = system: Pf3D7 trophozoites, pHcyt (PfATP4 and other plasma membrane transporters); design: method as in previous study; conditions: all conditions, versus solvent control 0.1% DMSO; ref previous study; cited from earlier work
[7] = system: Dd2-B2 (PfATP4^WT); experiment: Drug susceptibility assay for cross-resistance profiling (Fidock Lab), parental line; type: cell-based, Plasmodium falciparum; conditions: for EC50: Plasmodium falciparum
[8] = system: P. falciparum 3D7 parasites (Pf3D7); experiment: 72 h SYBR Green growth inhibition, ABS P. falciparum 3D7 (Phillips Lab); type: cell-based, Plasmodium falciparum; conditions: for EC50: 72 h SYBR Green assay, mean ± SEM (n); for reduction of activity relative to 2 / activity of analogs relative to parent 2 or 3 (in words): P. falciparum 3D7 and Dd2 parasites; for reduction of activity relative to 2: analogs of 2
[9] = system: Pf3D7 trophozoite-stage parasites, cytosolic pH (pHcyt); cell-based assay for ATP4 inhibition; experiment: P. falciparum cytosolic dose response pH assay (BCECF, with concanamycin A)
[10] = system: P. falciparum Dd2 (PfDd2) parasites; experiment: 72 h SYBR Green growth inhibition, ABS P. falciparum Dd2 (Phillips Lab); type: cell-based, Plasmodium falciparum; conditions: read-out: PfDd2 EC50
[11] = system: Dd2 PfATP4^P412L mutant clones; experiment: 72 h SYBR Green growth inhibition, 2-selected Dd2 clones with PfATP4 P412L (Phillips Lab); type: cell-based, Plasmodium falciparum
Procedure: (§1) To confirm the MOA for the α-azacyclic acetamides against P. falciparum and to obtain potential information about whether or not they bind PfATP4 at an overlapping site with that of KAE609, we undertook resistance selections using PfDd2 parasites using the published cycling drug selection method. , α-Azacyclic acetamides 2 and 3 were chosen as representative examples of the pyrrole- and indole-based series, respectively. […] Additional cycles were performed at 20 × EC50, until resistant parasites were detected based on a fold change in EC50 compared to the parental clonal Dd2 line (Table S3). Resistant parasites were detected in the 2-selections in all 4 flasks after 4 pulses and for 3-selections in 3 flasks after 5 pulses. Clonal lines were generated from each flask, and one clone per flask was selected for WGS and EC50 determination (Tables S4 and S5). WGS analysis identified two single point mutations in PfATP4 that were not present in the original clonal Dd2 parasite line (Tables and S4). P412L was found in three of four flasks containing 2-selected resistance clones, and F917L was identified in all three flasks containing 3-selected clones and in the fourth flask containing 2-selected clones (Table S4). PfATP4 mutations identified by the WGS analysis in parasite lines were verified by PCR of the pfatp4 gene, followed by Sanger sequencing (Figures S5, S6 and Table S6). An additional protein coding gene (ribosomal protein S8e) was mutated in the 2-selections. However, this mutation was identified in only one of four sequenced clones and is therefore unlikely to be related to resistance to 2 (Figure S7). All three resistant clones derived from the 3-selections harbored an identical mutation in a gene (pfcpu) encoding a conserved protein of unknown function, which was absent in the parental line (Figure S8).
(§2) ABS P. falciparum 3D7, Dd2 or PfNF54^luc parasites (BEI resources) were cultured in RPMI 1640 medium (Millipore Sigma), supplemented with 25 mM HEPES, 0.5% Albumax-I (Thermo Scientific), 23 mM sodium bicarbonate, 92 μM hypoxanthine, and 10 μg/mL gentamicin sulfate at 37 °C, 5% CO2, using deidentified O^+ red blood cells (BioIVT) as previously described. − Growth inhibition assays were conducted in 96 well plate format using the SYBR Green or luciferase reporter assay depending on the strain with modifications as described , (see Supporting Information for a detailed description). Details for the luciferase reporter assay are described below under the BRRoK assay section.
(§3) EC50 and CC50 values were determined by nonlinear regression performed in GraphPad Prism Version 10. Unless otherwise specified, data were fitted to the log(inhibitor) vs response–variable slope with four parameters equation. […] For mutant cell lines and compound combinations where bottom plateau of zero growth was not reached, the bottom of the curve was defined at 0% based on background values obtained for parental Dd2 from the same study.
(§4) Resistant Dd2 parasites were selected using a high-pressure intermittent selection protocol using a previously described method. Selections were set up using 4 flasks per compound starting with approximately 3 × 10^9 parasites per flask (80 mL per flask, 4% hematocrit, 3% parasitemia at the beginning of each pulse, mostly ring-stage parasites via previous sorbitol synchronization. Pulse 1 and 2 (48 h) were conducted at 10xEC50, and subsequent pulses were conducted at 20xEC50. Parasites cleared within 48 h under these conditions. 3-Selections used a total of 4 pulses, while 2-selections required 5 pulses before resistant parasites emerged (Table S3). Culture media was replenished daily for a week after each pulse, then every 2 days with weekly replenishment of blood. Cultures were monitored by microscopy until recrudescence. Clonal parasites were obtained from each flask by limiting dilution and maintained in drug free RPMI-1640 media prior to being analyzed for EC50 shifts. […]

[12] = system: Dd2 PfATP4^F917L mutant clones; experiment: 72 h SYBR Green growth inhibition, 2- or 3-selected Dd2 clones with PfATP4 F917L (Phillips Lab); type: cell-based, Plasmodium falciparum
Procedure: as §1, §2, §3, §4

[13] = system: PfD10 attB; experiment: 72 h SYBR Green growth inhibition, PfD10 attB; type: cell-based; conditions: Plasmodium falciparum; 72 h SYBR Green assay
[14] = 72 h SYBR Green assay, read-out: PfNF54^luc EC50
[15] = Plasmodium falciparum, DD2, 15-selected line
[16] = Plasmodium falciparum, DD2, 72 h
[17] = 72 h SYBR Green assay, mean ± SEM (n)

C[C@@H]1CC[C@H]2[C@@H](C)C(=O)O[C@@H]3O[C@@]4(C)CC[C@@H]1[C@]32OO4 [ART, artemisinin, reference compound]
EC50 [1, 14]: 10 nM | EC50 ([1]; 72 h SYBR Green, as listed in supplementary methods, read-out: EC50 values used for BRRoK concentration range (72h SYBR Green assay vs PfNF54luc)): 9.7 nM | EC50 ([2]; 6 h): 80 nM | 6 h EC50 relative to 72 h SYBR Green and LR EC50 ([2]; higher at 6 h): 10–20 fold | EC50 [3]: 4 nM

C[C@H]1[C@@H](O)O[C@@H]2O[C@@]3(C)CC[C@H]4[C@H](C)CC[C@@H]1[C@@]24OO3 [DHA, dihydroartemisinin, reference compound]
EC50 [4, 15]: 2.4 ± 0.23 nM | EC50 fold-change vs Dd2-B2, Dd2^L350H [4]: 1.2 fold | EC50 [5, 15]: 2.7 ± 0.15 nM | EC50 fold-change vs Dd2-B2, Dd2^P412L [5]: 1.4 fold | pH fingerprint traces (in words) [6]: overlapped with those of the solvent control | EC50 ([7]; DD2, 72 h, read-out: EC50, Dd2-B2): 2 ± 0.09 nM

Cc1cc(Nc2ccc(S(F)(F)(F)(F)F)cc2)n2nc(C(C)(F)F)nc2n1 [DSM265, reference compound]
EC50 ([8]; Plasmodium falciparum, 3D7): 6.6 ± 0.36 nM | effect on parasite cytosolic pH (pHcyt) in presence of CMA (in words) ([9]; Pf3D7, CMA 50 nM): no impact on pH | EC50 ([9]; Plasmodium falciparum, read-out: Pf3D7 pH EC50): > 400 nM | EC50 [10, 16]: 8.6 ± 0.36 nM | EC50 [1, 14]: 8.6 ± 0.3 nM | EC50 ([11]; Plasmodium falciparum, DD2, read-out: EC50, 2-selected flask #3 clone F5): 8.5 ± 1.4 nM | Fold EC50 change compared to WT Dd2, 2-selected flask #3 clone F5 ([11]; {}): 0.99 fold | EC50 ([12]; Plasmodium falciparum, DD2, read-out: EC50, 3-selected flask #3 clone D8): 7.3 ± 0.13 nM | Fold EC50 change compared to WT Dd2, 3-selected flask #3 clone D8 ([12]; {}): 0.85 fold | BRRoK assay, luciferase activity after 6 h treatment (kill rate, in words) ([2]; 6 h, 47x to 0.04x EC50): did not reduce parasite levels in the 6 h treatment window | EC50 ([2]; 6 h): > 240 nM | EC50 [3]: 6.8 ± 0.69 nM | EC50 [13]: 12 nM

N#Cc1cc(NC(=O)[C@H]2c3ccccc3C(=O)N(CC(F)(F)F)[C@@H]2c2cccnc2)ccc1F [SJ733]
EC50 ([7]; DD2, read-out: EC50, Dd2-B2): 130 nM | Fold change, Dd2-B2 ([7]; parent, Table S8): 1 fold

O=C1C(O)=C([C@H]2CC[C@H](c3ccc(Cl)cc3)CC2)C(=O)c2ccccc21 [atovaquone]
pH fingerprint traces (in words) [6]: overlapped with those of the solvent control

CCN(CC)CCCC(C)Nc1ccnc2cc(Cl)ccc12 (stereo not shown) [chloroquine]
pH fingerprint traces (in words) [6]: overlapped with those of the solvent control

Cc1ccc(NC(=O)Cn2cccc2-c2nc(-c3ccccc3)cs2)nc1 [compound 5, N-(5-methylpyridin-2-yl)-2-[2-(4-phenyl-1,3-thiazol-2-yl)-1H-pyrrol-1-yl]acetamide]
EC50 [8]: 10000 ± 30 nM | reduction of activity relative to 2 [8]: 10–20 fold | EC50 [10, 17]: 9600 ± 440 nM

Cc1cccc(NC(=O)Cn2cccc2-c2nc(-c3ccccc3)cs2)n1 [compound 6, N-(6-methylpyridin-2-yl)-2-[2-(4-phenyl-1,3-thiazol-2-yl)-1H-pyrrol-1-yl]acetamide]
EC50 [8]: 15000 ± 870 nM | reduction of activity relative to 2 [8]: 10–20 fold | EC50 [10, 17]: 12000 ± 1100 nM

Cc1ccnc(NC(=O)Cn2cccc2-c2nc(-c3ccc(Cl)cc3)cs2)c1 [compound 7, 2-(2-(4-(4-chlorophenyl)-1,3-thiazol-2-yl)-1H-pyrrol-1-yl}-N-(4-methylpyridin-2-yl)acetamide]
EC50 [8]: 15000 ± 2400 nM | reduction of activity relative to 2 [8]: 10–20 fold | EC50 [10, 17]: 14000 ± 580 nM

Cc1cccnc1NC(=O)Cn1cccc1-c1nc(-c2ccc(Cl)cc2)cs1 [compound 8, 2-(2-(4-(4-chlorophenyl)-1,3-thiazol-2-yl)-1H-pyrrol-1-yl)-N-(3-methylpyridin-2-yl)acetamide]
EC50 [8]: > 30000 nM | activity of analogs relative to parent 2 or 3 (in words) [8]: complete loss of activity | EC50 [10, 17]: > 30000 nM

Cc1cccc(NC(=O)Cn2cccc2-c2nc(-c3ccccc3)cs2)c1 [compound 9, N-(3-methylphenyl)-2-[2-(4-phenyl-1,3-thiazol-2-yl)-1H-pyrrol-1-yl]acetamide]
reduction of activity relative to 2 [8]: 2 fold | EC50 ([8]; Plasmodium falciparum, 3D7): 2800 ± 170 nM | EC50 [10, 16]: 1700 ± 38 nM

O=C(Cn1cccc1-c1nc(-c2ccccc2)cs1)Nc1cccc(Cl)c1 [compound 10, N-(3-chlorophenyl)-2-[2-(4-phenyl-1,3-thiazol-2-yl)-1H-pyrrol-1-yl]acetamide]
EC50 [8]: 1600 ± 330 nM | activity of analogs relative to parent 2 or 3 (in words) [8]: activity was restored | EC50 [10, 17]: 980 ± 82 nM

O=C(Cn1cccc1-c1nc(-c2ccc(Cl)cc2)cs1)N1CCc2ccccc21 [compound 11, 2-(2-(4-(4-chlorophenyl)-1,3-thiazol-2-yl)-1H-pyrrol-1-yl)-1-(2,3-dihydro-1H-indol-1-yl)ethan-1-one]
EC50 [8]: > 30000 nM | activity of analogs relative to parent 2 or 3 (in words) [8]: complete loss of activity | EC50 [10, 17]: > 30000 nM

CC(=O)c1cn(C(C)C(=O)NCCn2nc(C)c(Cl)c2C)c2ccccc12 (stereo not shown) [compound 12, 2-(3-acetyl-1H-indol-1-yl)-N-[2-(4-chloro-3,5-dimethyl-1H-pyrazol-1-yl)ethyl]propenamide]
EC50 [8]: > 30000 nM | activity of analogs relative to parent 2 or 3 (in words) [8]: loss of activity | EC50 [10, 17]: > 30000 nM

O=C(Cn1ccc2ccccc21)NCCn1cccn1 [compound 13, 2-(1H-indol-1-yl)-N-[2-(1H-pyrazol-1-yl)ethyl]acetamide]
EC50 [8]: > 30000 nM | activity of analogs relative to parent 2 or 3 (in words) [8]: loss of activity | EC50 [10, 17]: > 30000 nM

Cc1cc(N)n(CC(=O)NCCn2c(C)cc3ccccc32)n1 [compound 14, 2-(5-amino-3-methyl-1H-pyrazol-1-yl)-N-[2-(2-methyl-1H-indol-1-yl)ethyl]acetamide]
EC50 [8]: > 30000 nM | activity of analogs relative to parent 2 or 3 (in words) [8]: loss of activity | EC50 [10, 17]: > 30000 nM

From PMC12476894, “Identification of α‑Azacyclic Acetamide-Based Inhibitors of P. falciparum Na^+ Pump (PfATP4) with Fast-Killing Asexual Blood-Stage Antimalarial Activity by Phenotypic Screening” (ACS Infectious Diseases, 2025)
